In patent US11578110B2, “Compounds for inducing tissue formation and uses thereof” (HISTIDE AG, priority 2015, dated 2023):
No end group written: not given here.

The sequences below were run on hMSCs (assay: STRO-1 stemness marker expression in hMSCs (immunostaining, ImageJ quantification)). Settings: SEQ ID NO: 1 to 49 tested in combination with a bioactive carrier (titanium, ceramics, PEEK, hydrogel, etc.).
Format: cell-based, Human
Method: The cells were first fixed for 20 min with 4% paraformaldehyde/PBS at 4° C. After fixation, the cells were permeabilized in PBS containing 1% Triton X-100 for 15 min. Runx2, Osterix, Stro-1, Vinculin, Phalloidin, Osteopontin, Sox2, Sox9 antibodies were visualized by treating the cells with 1% (v/v) specific monoclonal antibodies for 1 hour at 37° C. Then the samples were incubated with Alexa fluor® 568 or 647 (F(ab′)2 fragment of IgG(H+L)) during 30 min at room temperature. The cell nuclei were counterstained in 20 ng/mL DAPI for 10 min at room temperature.
For this type of quantification the freeware image analysis ImageJ® software was used. The raw image was first converted to an 8-bit file, and then the unsharp mask feature was used (settings 1:0.2) to remove the image background (rolling ball radius 10). After smoothing, the resulting image, which appears similar to the original photomicrograph but with minimal background, was then converted to a binary image by setting a threshold. Threshold values were determined empirically by selecting a setting, which gave the most accurate binary image for a subset of randomly selected photomicrographs. The cell area was determined by manual delineation on raw fluorescent images. Total contact area and mean contact area per cell were calculated by “analyse particles” in ImageJ®. A minimum of 30 cells per condition were analyzed. Stro-1, CD-34+, and CD-105 expressions were determined using this procedure.
hMSCs were cultured on conventional cell culture plastic plates with or without the presence in the cell culture media of different GFR-binding compounds as defined hereins (SEQ ID NO: 50 to 104) in solution. […] This was probed by Stro-1 immunostaining after cell fixation as described in the Methods section. The quantification of Stro-1 positive contact numbers and areas was performed as described in the Methods section. A minimum of 30 cells per condition were analyzed.
RMSD values are always calculated for a GFR-binding peptide sequence exempt from any bioactive-carrier-affinity-containing group as defined herein (e.g. cysteine, WWFWG, GTPGP, etc. . . . ). When needed i.e. when attachment to a bioactive carrier is contemplated, the bioactive-carrier-affinity-containing group is then present in the GFR-binding compound when it is biologically tested. Using the method detailed in the description, the RMSD of 57 previously reported peptide sequences have been determined (Table 6) and correlated with the expression of STRO-1 after grafted on a PET surface via a procedure as already described above. […] One should note that it is commonly admitted that the expression of STRO-1 in a cell is indicative of a cell that is in a substantially non-differentiated state and the decrease of its expression of at least about 20% is indicative of a cell that has started a processes of differentiation but which may not result in the differentiation of the cell. A decrease of more than 50% would be indicative of the presence of a significant shift towards a differentiated state. A decrease of more than 70% would be indicative of the presence of a very important shift towards a differentiated state. A sustained decrease (e.g. for at least 96 h) of more than 50% or 70% would be indicative of the presence of an even more important shift towards a differentiated state.
Likewise, using the method detailed in the description, the RMSD of 87 GFR-binding peptide sequence representatives of the invention have been determined (Table 7) and correlated with the expression of STRO-1 after grafted on a PET surface via a procedure as already described above. SEQ ID NO: 1 to 49 were tested in combination with a bioactive carrier as defined above in the Examples Section (i.e. titanium, ceramics, PEEK, hydrogel, etc. . . . ), whereas SEQ ID NO: 1143 to 1180 were tested in solution.

Sequence	STRO-1 expression
AAPASSSVPTRLSAISMLYL [SEQ ID NO: 2]	18%
ASAAPSSVPAALSPISILYI [SEQ ID NO: 44]	15%
ASASPSSTQVDLRPVQVRKI [SEQ ID NO: 40]	36%
ASASPSSVSQDLSAISMLYL [SEQ ID NO: 15]	13%
AVPKASSAPTKLSAISMLYL [SEQ ID NO: 19]	19%
GGGKASSVPTKLSAISMLYL [SEQ ID NO: 21]	30%
GIPEPSSVPEKMSATSVLYY [SEQ ID NO: 7]	22%
GSAGPSSVPTKMSAISMLYL [SEQ ID NO: 1]	21%
GSAGPSSVPTKMSPISVLYK [SEQ ID NO: 8]	31%
GTPGPAAPASSSVPARLSAISMLYL (not fully specified) [SEQ ID NO: 35]	19%
GTPGPASSVPTKLSAISMLYL (GTPGPAXXVPTKLSAISMLYL; GFR-binding peptide; MOD_RES (7)..(8): Xaa is C or S) [SEQ ID NO: 26]	23%
GTPGPGSAGPSSTPTKMSAISMLYL (GTPGPGSAGPXXTPTKMSAISMLYL; GFR-binding peptide; MOD_RES (11)..(12): Xaa is C or S) [SEQ ID NO: 34]	26%
GTPGPNDEGLESAPTGQNAISVLYF (GTPGPNDEGLEXAPTGQNAISVLYF; GFR-binding peptide; MOD_RES (12)..(12): Xaa is C or S) [SEQ ID NO: 31]	32%
GTPGPPSSVPTKLSPISVLYK (GTPGPPXXVPTKLSPISVLYK; GFR-binding peptide; MOD_RES (7)..(8): Xaa is C or S) [SEQ ID NO: 30]	26%
GTPGPPTSVPTKLSPISVLYK (GFR-binding peptide) [SEQ ID NO: 29]	27%
GTPGPVPQELEPLTILYY (GFR-binding peptide) [SEQ ID NO: 24]	16%
GTPGPVPTEESAISMLYL (GFR-binding peptide) [SEQ ID NO: 28]	22%
GTPGPVPTELSPISVLYK (GFR-binding peptide) [SEQ ID NO: 25]	17%
GTPGPVPTGQSAISMLYL (GFR-binding peptide) [SEQ ID NO: 27]	24%
HVPKPSSAPTKLSAISMLYL [SEQ ID NO: 12]	28%
HVPKPSSVPTKLSPISVLYK [SEQ ID NO: 16]	23%
HVTKPTSVPEKLSSLSILFF [SEQ ID NO: 9]	29%

Same assay, conditions: SEQ ID NO: 1143 to 1180 tested in solution

Sequence	STRO-1 expression
AASKASSSRVELRSVKIAKV (GFR-binding peptide) [SEQ ID NO: 1152]	33%
AASKASSSRVKMSPINVLYF (GFR-binding peptide) [SEQ ID NO: 1167]	19%
AASKASSTPTDLNAISTLYF (GFR-binding peptide) [SEQ ID NO: 1158]	20%
AASKASSVPEKMRPVQTRKI (GFR-binding peptide) [SEQ ID NO: 1179]	32%
AASKASSVPQEEEPLPMVYY (GFR-binding peptide) [SEQ ID NO: 1149]	23%
AASKASSVPQRLRSVKVAKV (GFR-binding peptide) [SEQ ID NO: 1177]	31%
GIPEPSSAPTELSATSILYY (GFR-binding peptide) [SEQ ID NO: 1146]	20%
GIPEPSSAPTRLEPISMLYL (GFR-binding peptide) [SEQ ID NO: 1164]	16%
GIPEPSSAPVDLKPLSTLYV (GFR-binding peptide) [SEQ ID NO: 1148]	11%
GIPEPSSAPVDMRPVQIRKI (GFR-binding peptide) [SEQ ID NO: 1180]	30%
GIPEPSSAPVEEEPLTTLYY (GFR-binding peptide) [SEQ ID NO: 1174]	21%
GIPEPSSAPVGQEPLPMVYY (GFR-binding peptide) [SEQ ID NO: 1172]	28%
GIPEPSSVSQEESSLSTLFF (GFR-binding peptide) [SEQ ID NO: 1156]	19%
GIPEPSSVSQELSATSMLYY (GFR-binding peptide) [SEQ ID NO: 1160]	22%
KIPKASSSRVRLSSLSTLFF (GFR-binding peptide) [SEQ ID NO: 1157]	20%
KIPKASSTPTRLSPISMLFI (GFR-binding peptide) [SEQ ID NO: 1163]	28%
KIPKASSTQVGQSATSILYY (GFR-binding peptide) [SEQ ID NO: 1161]	27%

Same assay, conditions: grafted on a PET surface

Sequence	STRO-1 expression
AETLHTLGLSAPVIESAISDAI (Previously reported sequence) [SEQ ID NO: 1136, reference compound]	93%
ANINKDRDNVPAATSSLSKAYNP (Previously reported sequence) [SEQ ID NO: 1119, reference compound]	92%
APTKLNAISVLYFDDSSNVILKKYRNMIVKS (Previously reported sequence) [SEQ ID NO: 1126, reference compound]	84%
APTQLSAISVL (Previously reported sequence) [SEQ ID NO: 1127, reference compound]	93%
CCAPTELSAISVLYFDDSSNVILKKYRNMVVRACGCR (Previously reported sequence) [SEQ ID NO: 1139, reference compound]	81%
CCAPTQLSAISVLYFDDSSNVILKKYRNMVVRACGCR (Previously reported sequence) [SEQ ID NO: 1140, reference compound]	82%
CIPKPSSAPTELSAISMLYL (Previously reported sequence) [SEQ ID NO: 1134, reference compound]	83%
CKIPKPSSAPTELSAISMLYL (Previously reported sequence) [SEQ ID NO: 1135, reference compound]	78%
CPKPSSAPTELSAISMLL (Previously reported sequence) [SEQ ID NO: 1130, reference compound]	79%
CVTKPLSSLLFPNWNTTTTPTPP (Previously reported sequence) [SEQ ID NO: 1102, reference compound]	92%
DKPEESSSTPTHAQCICSSLSEAIVSSVLSTRLVLSQISLTRAKRAFE (Previously reported sequence) [SEQ ID NO: 1121, reference compound]	87%
DPLPIIYYVGRNVRVEQLSNMVVRACKCS (Previously reported sequence) [SEQ ID NO: 1089, reference compound]	97%
ENVNLKKYRNMIVKSCGCH (Previously reported sequence) [SEQ ID NO: 1090, reference compound]	97%
FDSRVLKSAISFKENIIF (Previously reported sequence) [SEQ ID NO: 1128, reference compound]	89%
HIRSTTSSYVSLKSNITNRTIQTPTYSYT (Previously reported sequence) [SEQ ID NO: 1092, reference compound]	98%
IKSPARHSAPTHQEPLP (Previously reported sequence) [SEQ ID NO: 1097, reference compound]	98%
KGSEYEKLVVSGITQVYQSSLSWHGCKSCCEVQVXNLXILIRLYDVHYYN (not fully specified; X: residue not identified in the source; ends and bridges not checked) [SEQ ID NO: 1122, reference compound]	88%
